Data as given in patent US8362067B2, “3-aminoalkyl-1,3-dihydro-2H-indol-2-one derivatives, preparation thereof and therapeutic use thereof” (Sanofi, priority 2008, dated 2013).
Where a name gives a salt, the structure may show the parent alone.

Key:
human V2 receptors = human V2 receptors (Homo sapiens, UniProt P30518); assay: Affinity for vasopressin V2 receptors; type: binding; settings: for IC50: binding
Source text: The affinity of the compounds of formula (I) according to the invention for vasopressin V2 receptors was also studied (method described by M. Birnbaumer et al. in Nature (Lond.), 1992, 357, 333-335).
(§1) The comparative pharmacological results of Compounds Nos. 17, 38, 46, 107 and 108 according to the invention with the compounds α and β of the prior art on the various in vitro tests measuring the affinity at human V1a, V1b, V2 and oxytocin receptors are illustrated in the following TABLE XV. The results are expressed by the 50% inhibitory concentration (IC50) expressed on a nanomolar basis (nM).

human V1b receptors = target: T1, human V1b receptors (Homo sapiens, UniProt P47901); assay: Affinity for human V1b receptors: displacement of [3H]-AVP; settings: binding
T1 sequence (P47901 1-424): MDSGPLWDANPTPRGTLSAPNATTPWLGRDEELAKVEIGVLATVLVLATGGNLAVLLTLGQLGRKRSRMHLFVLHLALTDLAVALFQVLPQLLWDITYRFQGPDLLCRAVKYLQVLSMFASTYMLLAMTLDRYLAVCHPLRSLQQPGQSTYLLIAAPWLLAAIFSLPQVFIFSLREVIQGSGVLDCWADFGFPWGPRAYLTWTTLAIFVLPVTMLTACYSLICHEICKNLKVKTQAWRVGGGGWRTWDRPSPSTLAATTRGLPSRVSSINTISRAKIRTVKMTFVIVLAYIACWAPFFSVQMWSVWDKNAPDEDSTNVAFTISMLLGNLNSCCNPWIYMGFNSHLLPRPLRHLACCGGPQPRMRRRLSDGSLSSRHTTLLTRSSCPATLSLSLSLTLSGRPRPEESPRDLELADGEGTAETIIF
Experimental: The affinity of the compounds of formula (I) according to the invention for arginine-vasopressin V1b receptors was determined in vitro using the method described by Y. de Keyser et al. in Febs Letters, 1994, 356, 215-220. This method consists in studying in vitro the displacement of tritiated arginine-vasopressin ([^3H]-AVP) at the V1b receptors present on cell preparations carrying human V1b receptors.
as §1

human V1a receptors = human V1a receptors (Homo sapiens, UniProt P37288); assay: Measurement of intracellular calcium (FLIPR) on cells expressing human V1a receptors; type: cell-based; settings: blocking the pharmacological effects brought about by arginine-vasopressin (FLIPR and platelet aggregation tests)
Sequence of human V1a receptors (P37288 whole entry): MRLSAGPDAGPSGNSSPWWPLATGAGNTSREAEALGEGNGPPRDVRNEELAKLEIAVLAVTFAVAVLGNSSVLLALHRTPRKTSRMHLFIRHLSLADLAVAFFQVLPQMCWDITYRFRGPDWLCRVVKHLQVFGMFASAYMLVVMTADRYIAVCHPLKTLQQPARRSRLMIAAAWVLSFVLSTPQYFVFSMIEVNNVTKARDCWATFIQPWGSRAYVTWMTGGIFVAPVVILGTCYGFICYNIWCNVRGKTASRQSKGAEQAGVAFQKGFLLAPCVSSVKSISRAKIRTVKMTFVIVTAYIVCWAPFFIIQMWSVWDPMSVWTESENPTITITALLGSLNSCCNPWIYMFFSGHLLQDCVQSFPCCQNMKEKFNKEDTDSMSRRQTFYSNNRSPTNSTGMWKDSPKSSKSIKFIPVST
Experimental: The agonist or antagonist nature of the compounds is determined in vitro in a test for the measurement of intracellular calcium (FLIPR) on cells expressing human V1a receptors according to the general technique described in Sullivan et al., Methods Mol. Biol., 1999, 114, 125-133, using 1 μM of Fluo4 AM, and in a test for platelet aggregation induced with AVP on human PRP (platelet-rich plasma) according to the methodology described in J. Clin. Invest., 1993, 92, 224-231. The compounds are preincubated 30 minutes before the addition of the arginine-vasopressin in order to determine the agonist and antagonist properties of these molecules.

[1] = target: human arginine-vasopressin V1a receptors (Homo sapiens, UniProt P37288); assay: Affinity for human V1a receptors: displacement of [3H]-AVP; type: binding; settings: for IC50: binding, displacement of [3H]-AVP; for selectivity for human AVP V1a receptors and for human AVP V1b receptors: versus V2 and/or oxytocin receptors
Sequence of human arginine-vasopressin V1a receptors (P37288 whole entry): as above
Experimental: The affinity of the compounds of formula (I) according to the invention for arginine-vasopressin V1a receptors was determined in vitro using the method described by M. Thibonnier et al., J. Biol. Chem., 1994, 269, 3304-3310. This method consists in studying in vitro the displacement of tritiated arginine-vasopressin ([^3H]-AVP) at the V1a receptors present on membrane or cell preparations carrying rat or human V1a receptors.
as §1

[2] = target: T2, human uterine oxytocin receptor (Homo sapiens, UniProt P30559); assay: Affinity for oxytocin receptors: displacement of a radioiodinated oxytocin analog; type: binding; settings: for IC50: binding, radioiodinated oxytocin analog
T2 construct: expressed in transfected cells
T2 sequence (P30559 1-389): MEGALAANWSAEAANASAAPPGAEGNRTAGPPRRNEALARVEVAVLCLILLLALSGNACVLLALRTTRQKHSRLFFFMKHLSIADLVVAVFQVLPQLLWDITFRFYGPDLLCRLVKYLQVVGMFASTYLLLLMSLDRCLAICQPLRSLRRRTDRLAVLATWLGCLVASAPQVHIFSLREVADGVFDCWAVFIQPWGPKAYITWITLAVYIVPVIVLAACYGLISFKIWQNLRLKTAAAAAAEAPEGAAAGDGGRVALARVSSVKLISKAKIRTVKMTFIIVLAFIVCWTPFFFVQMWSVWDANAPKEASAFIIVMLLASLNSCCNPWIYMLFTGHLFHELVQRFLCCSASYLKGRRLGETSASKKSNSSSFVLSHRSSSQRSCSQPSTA
Experimental: The affinity of the compounds according to the invention for oxytocin receptors was determined in an in vitro binding test using the method described by J. Elands et al. in Eur. J. Pharmacol., 1987, 147, 197-207. This method consists in studying in vitro the displacement of a radioiodinated oxytocin analog at the oxytocin receptors in a cell membrane preparation transfected with the human uterine oxytocin receptor.
as §1

Sequence of human V2 receptors (P30518 whole entry): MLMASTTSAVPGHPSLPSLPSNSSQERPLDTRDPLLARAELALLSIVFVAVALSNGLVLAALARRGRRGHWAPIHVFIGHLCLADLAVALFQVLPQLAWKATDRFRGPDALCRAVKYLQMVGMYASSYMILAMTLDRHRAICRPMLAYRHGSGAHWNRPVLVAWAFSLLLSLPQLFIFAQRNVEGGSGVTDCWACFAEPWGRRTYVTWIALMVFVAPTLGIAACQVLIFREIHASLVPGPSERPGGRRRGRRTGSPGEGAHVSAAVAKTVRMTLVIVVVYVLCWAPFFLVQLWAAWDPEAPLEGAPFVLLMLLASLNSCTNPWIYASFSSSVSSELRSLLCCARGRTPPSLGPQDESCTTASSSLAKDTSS

Structure (SMILES)	melting point [°C]	IC50 (human V2 receptors) [nM]	IC50 (human V1b receptors) [nM]	IC50 [1] [nM]	IC50 [2] [nM]	further results
COc1cc2c(cc1Cl)C(CCCN1CCNCC1)(c1ccccc1F)C(=O)N2S(=O)(=O)c1ccc(OC(F)F)cc1 (stereo not drawn) (as salt: HCl) [compound 24, 5-chloro-1-{[4-(difluoromethoxy)phenyl]sulfonyl}-3-(2-fluorophenyl)-6-methoxy-3-(3-(piperazin-1-yl)propyl)-1,3-dihydro-2H-indol-2-one]	218					
COc1cc2c(cc1Cl)C(CCCN1CCNCC1)(c1ccccc1F)C(=O)N2S(=O)(=O)c1ccc(OC(F)(F)F)cc1 (stereo not drawn) (as salt: HCl) [compound 25, 5-chloro-3-(2-fluorophenyl)-6-methoxy-3-(3-(piperazin-1-yl)propyl)-1-{[4-(tri-fluoromethoxy)phenyl]sulfonyl}-1,3-dihydro-2H-indol-2-one]	220					
COc1cc2c(cc1Cl)C(CCCN1CCNCC1)(c1ccccc1F)C(=O)N2S(=O)(=O)c1ccccc1 (stereo not drawn) (as salt: HCl) [compound 26, 5-chloro-3-(2-fluorophenyl)-6-methoxy-1-(phenylsulfonyl)-3-(3-(piperazin-1-yl)propyl)-1,3-dihydro-2H-indol-2-one]	238					
COc1ccc(S(=O)(=O)N2C(=O)C(CCCN3CCNCC3)(c3ccccc3F)c3cc(F)c(OC)cc32)cc1C (stereo not drawn) (as salt: HCl) [compound 107]	152					
COc1ccc(S(=O)(=O)N2C(=O)C(CCCN3CCNCC3)(c3ccccc3F)c3cc(OC)c(OC)cc32)cc1C (stereo not drawn) (as salt: HCl) [compound 108]	160					
COc1cc2c(cc1Cl)C(CCCN1CCNCC1)(c1ccccc1F)C(=O)N2S(=O)(=O)c1ccc(OC(C)C)cc1.Cl (single isomer, unassigned) [Compound No. 17, 5-Chloro-3-(2-fluorophenyl)-1-[(4-isopropoxyphenyl)sulfonyl]-6-methoxy-3-[3-(piperazin-1-yl)propyl]-1,3-dihydroindol-2-one hydrochloride]	232	450	> 1000	2.4	390	agonist or antagonist nature at V1a receptors (human V1a receptors): antagonists of V1a receptors
COc1ccc(S(=O)(=O)N2C(=O)C(CCCC3CCNCC3)(c3ccccc3F)c3cc(Cl)c(OC)cc32)c(OC)c1.Cl (stereo not drawn) [Compound No. 1]	163					
COc1ccc(S(=O)(=O)N2C(=O)C(CCCC3CCNCC3)(c3ccccc3F)c3cc(Cl)c(OC)cc32)c(OC)c1.Cl (stereo not drawn) [Compound No. 2]	175					
COc1cc2c(cc1Cl)C(CCCN1CCN(C)CC1)(c1ccccc1F)C(=O)N2S(=O)(=O)c1ccc(OC(C)C)cc1.Cl (stereo not drawn) [Compound No. 13, 5-Chloro-3-(2-fluorophenyl)-1-[(4-isopropoxyphenyl)sulfonyl]-6-methoxy-3-[3-(4-methylpiperazin-1-yl)propyl]-1,3-dihydroindol-2-one hydrochloride]	205					agonist or antagonist nature at V1a receptors (human V1a receptors): antagonists of V1a receptors
COc1cccc(S(=O)(=O)N2C(=O)C(CCCN3CCN(C)CC3)(c3ccccc3F)c3cc(Cl)c(OC)cc32)c1 (stereo not drawn) [Compound No. 38]		> 1000	> 1000	1.1	500	
COc1cc2c(cc1Cl)C(CCCN1CCNCC1)(c1ccccc1F)C(=O)N2S(=O)(=O)c1ccc(O)cc1 (stereo not drawn) [Compound No. 46]		> 1000	640	2.4	380	
CCN(CC)C(=O)Nc1ccc(S(=O)(=O)N2C(=O)C(NCCC3CCNCC3)(c3ccccc3Cl)c3cc(Cl)c(Cl)cc32)cc1 (stereo not drawn) [Compound α, 3-[4-[[5,6-dichloro-3-(2-chlorophenyl)-2-oxo-3-[(2-(piperidin-4-yl)ethyl)amino]-2,3-dihydro-1H-indol-1-yl]sulfonyl]phenyl]-1,1-diethylurea, reference compound]						affinity for human AVP V2 receptors (human V2 receptors): good affinity; affinity for human AVP V1a receptors [1]: good affinity; selectivity for human AVP V1a receptors and for human AVP V1b receptors [1]: not selective; affinity for oxytocin receptors [2]: good affinity
CCN(CC)C(=O)Nc1ccc(S(=O)(=O)N2C(=O)C(NCCC3CCNCC3)(c3ccccc3Cl)c3cc(Cl)c(C)cc32)cc1 (stereo not drawn) [Compound β, 3-[4-[[5-chloro-3-(2-chlorophenyl)-6-methyl-2-oxo-3-[(2-(piperidin-4-yl)ethyl)amino]-2,3-dihydro-1H-indol-1-yl]sulfonyl]phenyl]-1,1-diethylurea, reference compound]						affinity for human AVP V2 receptors (human V2 receptors): good affinity; affinity for human AVP V1a receptors [1]: good affinity; selectivity for human AVP V1a receptors and for human AVP V1b receptors [1]: not selective
CCOc1ccc(S(=O)(=O)N2C(=O)C(CCCN3CCC(F)(F)CC3)(c3ccccc3F)c3cc(Cl)c(OC)cc32)cc1OC (stereo not drawn) [compound 9, 5-chloro-3-[3-(4,4-difluoropiperidin-1-yl)propyl]-1-[(4-ethoxy-3-methoxy-phenyl)sulfonyl]-3-(2-fluorophenyl)-6-methoxy-1,3-dihydro-2H-indol-2-one]	88					
COc1ccc(S(=O)(=O)N2C(=O)C(CCCN3CCNCC3)(c3ccccc3F)c3cc(F)c(OC)cc32)cc1C (stereo not drawn) [compound 107]		> 1000	140	8.5	> 1000	
COc1ccc(S(=O)(=O)N2C(=O)C(CCCN3CCNCC3)(c3ccccc3F)c3cc(OC)c(OC)cc32)cc1C (stereo not drawn) [compound 108]		> 1000	320	5	> 1000	
